The text below walks through data of patent US7041701B2, “Triterpenoid derivatives” (Univerzita Palackeho V Olomouci, priority 2000, dated 2006).

Each structure is given as a SMILES string.

Experiment [1] relates to OVCAR-3 human ovarian cancer. The experiment can be described thus: MTT cytotoxicity assay, OVCAR-3. Type of experiment: cell-based. The note with it: 72 hours, read-out: TCS50. An excerpt:
(§1) One of the parameters used as the basis for colorimetric assays is the metabolic activity of viable cells. For example, a microtiter assay which uses the tetrazolium salt MTT is now widely used to quantitate cell proliferation and cytotoxicity [Hajdúch M, Mihál V, Minarík J, Fáber E, Safárová M, Weigl E, Antálek P.: Cytotechnology, 1996, 19, 243–245]. For instance, this assay is used in drug screening programs and in chemosensitivity testing. Because tetrazolium salts are cleaved only by metabolically active cells, these assays exclusively detect viable cells. In the case of the MTT assay, yellow soluble tetrazolium salt is reduced to a coloured water-insoluble formazan salt. After it is solubilized, the formazan formed can easily and rapidly be quantified in a conventional ELISA plate reader at 570 nm (maximum absorbancy). The quantity of reduced formazan corresponds to the number of vital cells in the culture. […]
(§2) The cell suspensions that were prepared and diluted according to the particular cell type and the expected target cell density (2,500–30,000 cells per well based on cell growth characteristics) were added by pipette (80 μl) into 96/well microtiter plates. […] Usually, test compounds were evaluated at six 4-fold dilutions. […] The tumour cell survival (TCS) was calculated using the following equitation: TCS=(ODdrug exposed well/mean ODcontrol wells)×100%. […]

In experiment [2] the test system is HepG2 human hepatocellular carcinoma. The experiment can be described thus: MTT cytotoxicity assay, HepG2. The format is cell-based. The note with it: 72 hours, read-out: TCS50.
Text: as §1, §2
In general terms: Formazan colour is commonly taken as a measure of viable cells.

Experiment [3] relates to K562-FLUD human promyelocytic leukemia, fludarabin resistant. In words: MTT cytotoxicity assay, K562-FLUD. The format is cell-based. The note with it: 72 hours, read-out: TCS50.
Text: as §1, §2

A further experiment has as its system CEM cells. In words: Flow cytometry of total DNA content (cell cycle, apoptosis) in CEM cells. The format is cell-based, human. Here is the method:
Hypophosphorylation of Rb protein is accompanied with cell cycle block on the G1/S transition. To investigate whether incubation of tumour cells with betulinines will result in cell cycle block and/or apoptosis, a flow-cytometry study was performed with measurement of total DNA content in CEM cells treated with/without I.3. Taxol (paclitaxel) was used as a positive control, since this drug is known to result in the cumulation of cells in the G2 phase.
Briefly, CEM cells were cultured in Dulbeco's modified essential medium with 4.5 g dextrose/l, 10% of foetal calf serum, 2 mM glutamine, 100 U/ml penicillin and 100 μg/ml streptomycin with/without the indicated concentrations of paclitaxel or I.3 (FIG. 4A). At selected time points, cells were harvested, washed in ice cold Hank's balanced salt solution (HBSS) and fixed in 70% ethanol at −20° C. overnight. The next day, ethanol was removed by centrifugation, cells were washed twice in HBSS and a cellular pellet (10^6 cells) was reconstituted in staining solution (propidium iodide 60 μg/ml, DNA-se free RNA-se 175 U/ml in HBSS) for 15 minutes at 37° C. The DNA content of individual cells was analyzed on flow cytometer Excalibur (Becton and Dickinson) at excitation wavelength of 488 nm.
(A flow cytometer gives signals particle by particle.)

For experiment [4], the system named is SW620 human colon cancer, metastasis. The experiment can be described thus: MTT cytotoxicity assay, SW620. The format is cell-based. The note with it: 72 hours, read-out: TCS50.
Text: as §1, §2

For the next experiment, the system named is Rb protein. The experiment can be described thus: Rb protein phosphorylation state, SDS-PAGE/Western blot in CEM cells. The format is cell-based, human. Here is the method:
Since Rb protein contains multiple phosphorylation sites for CDKs, its phosphorylated form has molecular weight about 110 kDa, while the molecular weight of hypophosphorylated protein is only 105 kDa This small difference in molecular weight is enough to separate both forms by conventional SDS-PAGE electrophoresis.
CEM cells were cultured in Dulbeco's modified essential medium with 4.5 g dextrose/l, 10% of foetal calf serum, 2 mM glutamine, 100 U/ml penicillin and 100 μg/ml streptomycin with/without below indicated concentrations of betulkic acid (BA) or I.3. At selected time points, cells were harvested, washed in ice cold Hank's balanced salt solution and solubilized on ice using the SDS-PAGE sample buffer containing protease and phosphatase inhibitors (10 μg/ml of leupeptin, 10 μg/ml of aprotinin, 10 μg/ml of soybean trypsin inhibitor, 100 μmol of benzamide, 1 mM of sodium vanadate, 1 mM of NaF, 1 mM of phenylphosphate) and boiled immediately.
Total cellular proteins (100 μg/well) were separated on SDS-PAGE electrophoresis, blotted on polyvinyldifluoride membranes and total Rb protein, including proteolytic fragment(s) were detected using a pRb monoclonal antibody (Oncogene, Germany, Rb(AS5), Cat# OP66 Rev 2 Sep. 1996 EB, Clone LM95.1) and visualized by chemilumniuscence (ECL-Westeg Blotting System, Amersham). Details of the Western blot technique are described in Ausubel, F. M., Brent, R., Kingston, P E., Moore, D. D., Seidman, J. G., Smith, J. A., Struhl, K (Eds): Short Protocols-in Molecular Biology, 2nd edition, John Wiley & Sons, New York, Chichester, Brisbane, Toronto, Singapore, 1992, page 10–33–10–35.

The subject of experiment [5] is K562-ARA-C human promyelocytic leukemia, cytarabin resistant. The experiment can be described thus: MTT cytotoxicity assay, K562-ARA-C. The format is cell-based. The note with it: 72 hours, read-out: TCS50.
Text: as §1, §2

The test system of experiment [6] is CEM-DNR bulk human T-lymphoblastic leukemia, daunorubicin resistant. The experiment can be described thus: MTT cytotoxicity assay, CEM-DNR bulk. Type of experiment: cell-based. The note with it: 72 hours, read-out: TCS50.
Text: as §1, §2

The subject of experiment [7] is DU145 human prostate cancer, androgen independent, Rb−/−. The experiment can be described thus: MTT cytotoxicity assay, DU145. The format is cell-based. The note with it: 72 hours, read-out: TCS50.
Text: as §1, §2

Another experiment deals with MEL-3 human melanoma. The experiment can be described thus: MTT cytotoxicity assay, MEL-3. The format is cell-based. The note with it: 72 hours, read-out: TCS50.
Text: as §1, §2

For the compound `CC(=O)OC[C@@]1(C(=O)O)CC[C@]2(C)[C@H](CC[C@@H]3[C@@]4(C)CC[C@H](OC(C)=O)C(C)(C)[C@@H]4CC[C@]32C)C1=O` [I.3, 3β,28-diacetoxy-18-oxo-19,20,21,29,30-pentanorlupan-22-oic acid], the IC50 came to 1000 nM in experiment [1]; 1700 nM in [2]; 400 nM in experiment [3]; 1200 nM in experiment [4]; 600 nM in experiment [5]; 1100 nM in [6]. The IC50 in experiment [7] was 800 nM; with MEL-3 human melanoma, 1300 nM. Further, the cell cycle distribution result with CEM cells (propidium iodide flow cytometry (FIG. 4A)) was “induces cumulation of cells in G0/G1 phases”. Moreover, in the experiment on CEM cells (propidium iodide flow cytometry (FIG. 4B)), the “induction of apoptosis (sub-G1 cells)” value is listed as “rapid apoptosis”. Further, the “time to appearance of hypophosphorylated form of Rb” value in the experiment on Rb protein (7 μM) came to 2 h; with Rb protein (20 μM), 0.25 h. Besides, in the experiment on Rb protein (Western blot), the “cleavage of Rb protein (42 kDa fragment, caspase activation)” value was “time and concentration dependent appearance of an immunoreactive fragment of Rb protein”. Further, the “dephosphorylation of Rb protein (shift 110 kDa to 105 kDa)” value in the experiment on Rb protein (Western blot (FIG. 3)) is listed as “rapidly dephosphorylated”.
